The values that follow come from US20230192705A1, “SHP2 INHIBITORS, COMPOSITIONS AND USES THEREOF” (Betta Pharmaceuticals Co., Ltd, priority 2020, published 2023).

For this experiment, the target named is T1, SHP2 (Homo sapiens, UniProt Q06124).
T1 sequence (Q06124 1-593): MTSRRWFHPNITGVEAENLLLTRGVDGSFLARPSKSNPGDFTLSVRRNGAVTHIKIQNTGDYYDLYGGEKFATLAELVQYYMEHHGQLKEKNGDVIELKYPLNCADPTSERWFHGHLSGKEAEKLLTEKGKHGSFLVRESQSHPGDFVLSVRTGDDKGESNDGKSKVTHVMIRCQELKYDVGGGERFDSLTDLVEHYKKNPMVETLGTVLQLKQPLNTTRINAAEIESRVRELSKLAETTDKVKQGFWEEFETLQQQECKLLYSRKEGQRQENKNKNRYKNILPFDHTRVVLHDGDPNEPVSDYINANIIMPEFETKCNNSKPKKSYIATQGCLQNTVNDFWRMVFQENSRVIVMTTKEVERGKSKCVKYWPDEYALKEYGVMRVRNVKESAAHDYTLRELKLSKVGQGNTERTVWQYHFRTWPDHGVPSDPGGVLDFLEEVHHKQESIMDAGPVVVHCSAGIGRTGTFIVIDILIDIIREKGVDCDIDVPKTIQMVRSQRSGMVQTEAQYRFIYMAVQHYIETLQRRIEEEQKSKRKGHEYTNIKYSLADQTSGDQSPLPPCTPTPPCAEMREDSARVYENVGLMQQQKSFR
Description: SHP2 allosteric inhibitor enzyme activity assay (DiFMUP fluorescence). It is filed as biochemical. The conditions noted are these: class symbols. In short, it runs like this: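 SHP2 activated by 0.5 μM IRS1_pY1172(dPEG8)pY1222 peptide, 0.2 ng enzyme per well, 1 h at room temperature with compound (1 μM top, 3-fold series), then DiFMUP substrate 1 h. Buffer: 60 mM HEPES, 75 mM NaCl, 75 mM KCl, 0.05% BRIJ-35, 1 mM EDTA, 5 mM DTT. Fluorescence ex 340/em 450 nm; IC50 by variable-slope fit.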

On to `N[C@@H]1c2ccccc2CC12CCN(c1nc3[nH]nc(C4(c5ccnc(C(F)(F)F)c5)CC4)c3c(=O)[nH]1)CC2` [Example 27, (S)-6-(1-amino-1,3-dihydrospiro[indene-2,4′-piperidin]-1′-yl)-3-(1-(2-(trifluoromethyl)pyridin-4-yl)cyclopropyl)-1,5-dihydro-4H-pyrazolo[3,4-d]pyrimidin-4-one], for which the IC50 (as a rule, the midpoint of a concentration-inhibition curve) was not above 20 nM.

For the compound `C[C@@H]1OCC2(CCN(c3nc4[nH]nc(C5(c6nncs6)CC5)c4c(=O)[nH]3)CC2)[C@@H]1N` [Example 280, 3-(1-(1,3,4-thiadiazol-2-yl)cyclopropyl)-6-((3S,4S)-4-amino-3-methyl-2-oxa-8-azaspiro[4.5]decan-8-yl)-1,5-dihydro-4H-pyrazolo[3,4-d]pyrimidin-4-one], the IC50 is more than 60 nM.

`N[C@@H]1c2ccccc2CC12CCN(c1nc3[nH]nc(C4(c5ccc6nccnc6c5)CC4)c3c(=O)[nH]1)CC2` [Example 32, (S)-6-(1-amino-1,3-dihydrospiro[indene-2,4′-piperidin]-1′-yl)-3-(1-(quinoxalin-6-yl)cyclopropyl)-1,5-diliydro-4H-pyrazolo[3,4-d]pyrimidin-4-one] had an IC50 of 20 to 60 nM.

`Cc1cc(C(F)(F)F)c2c(n1)CCC=C2c1n[nH]c2nc(N3CCC4(CC3)Cc3ccccc3[C@H]4N)[nH]c(=O)c12` [Example 140, (S)-6-(1-amino-1,3-dihydrospiro[indene-2,4′-piperidin]-1′-yl)-3-(2-methyl-4-(trifluoromethyl)-7,8-dihydroquinolin-5-yl)-1,5-dihydro-4H-pyrazolo[3,4-d]pyrimidin-4-one] displayed an IC50 of 20 to 60 nM.

In turn, `N[C@@H]1c2ccccc2CC12CCN(c1nc3[nH]nc(C4(c5nccs5)CC4)c3c(=O)[nH]1)CC2` [Example 84, (S)-6-(1-amino-1,3-dihydrospiro[indene-2,4′-piperidin]-1′-yl)-3-(1-(thiazol-2-yl)cyclopropyl)-1,5-dihydro-4H-pyrazolo[3,4-d]pyrimidin-4-one] came in with an IC50 not above 20 nM.

On to `C[C@@H]1OCC2(CCN(c3ncc(C4(c5ccccc5)CC4)nc3CO)CC2)[C@@H]1N` [Example 260, (3-((3S,4S)-4-amino-3-methyl-2-oxa-8-azaspiro[4.5]decan-8-yl)-6-(1-phenylcyclopropyl)pyrazin-2-yl)methanol], for which the IC50 was more than 60 nM.

Turning to `COc1cc(C2(c3n[nH]c4nc(N5CCC6(CC5)Cc5ccccc5[C@H]6N)[nH]c(=O)c34)CC2)ccn1` [Example 28, (S)-6-(1-amino-1,3-dihydrospiro[indene-2,4′-piperidin]-1′-yl)-3-(1-(2-methoxypyridin-4-yl)cyclopropyl)-1,5-dihydro-4H-pyrazolo[3,4-d]pyrimidin-4-one], the IC50 was not above 20 nM.

Turning to `C[C@@H]1OCC2(CCN(c3nc4[nH]nc(C5(c6ccccn6)CC5)c4c(=O)[nH]3)CC2)[C@@H]1N` [Example 276, 6-((3S,4S)-4-amino-3-methyl-2-oxa-8-azaspiro[4.5]decan-8-yl)-3-(1-(pyridin-2-yl)cyclopropyl)-1,5-dihydro-4H-pyrazolo[3,4-d]pyrimidin-4-one], the IC50 lay within 20 to 60 nM.

`C[C@@H]1OCC2(CCN(c3nc4[nH]nc(C5(c6ccncc6)CC5)c4c(=O)[nH]3)CC2)[C@@H]1N` [Example 274, 6-((3S,4S)-4-amino-3-methyl-2-oxa-8-azaspiro[4.5]decan-8-yl)-3-(1-(pyridin-4-yl)cyclopropyl)-1,5-dihydro-4H-pyrazolo[3,4-d]pyrimidin-4-one] gave an IC50 of 20 to 60 nM.

The compound `C[C@@H]1CCC2(CCN(c3nc4[nH]nc(C5(c6ccccc6)CC5)c4c(=O)[nH]3)CC2)[C@@H]1N` [Example 320, 6-((1R,2R)-1-amino-2-methyl-8-azaspiro[4.5]decan-8-yl)-3-(1-phenylcyclopropyl)-1,5-dihydro-4H-pyrazolo[3,4-d]pyrimidin-4-one] returned an IC50 of 20 to 60 nM.

With `CC1(C)Cc2ncccc2C(c2n[nH]c3nc(N4CCC5(CC4)Cc4ccccc4[C@H]5N)[nH]c(=O)c23)=C1F` [Example 190, (S)-6-(1-amino-1,3-dihydrospiro[indene-2,4′-piperidin]-1′-yl)-3-(6-fluoro-7,7-dimethyl-7,8-dihydroquinolin-5-yl)-1,5-dihydro-4H-pyrazolo[3,4-d]pyrimidin-4-one], the IC50 was not above 20 nM.

In turn, `C[C@@H]1OCC2(CCN(c3nc4[nH]nc(C5(c6ccccc6C(F)(F)F)CC5)c4c(=O)[nH]3)CC2)[C@@H]1N` [Example 298, 6-((3S,4S)-4-amino-3-methyl-2-oxa-8-azaspiro[4.5]decan-8-yl)-3-(1-(2-(trifluoromethyl)phenyl)cyclopropyl)-1,5-dihydro-4H-pyrazolo[3,4-d]pyrimidin-4-one] yielded an IC50 of more than 60 nM.

Regarding `Cn1ccc2c(C3(c4n[nH]c5nc(N6CCC7(CC6)Cc6ccccc6[C@H]7N)[nH]c(=O)c45)CC3)cccc21` [Example 81, (S)-6-(1-amino-1,3-dihydrospiro[indene-2,4′-piperidin]-1′-yl)-3-(1-(1-methyl-1H-indol-4-yl)cyclopropyl)-1,5-dihydro-4H-pyrazolo[3,4-d]pyrimidin-4-one], the IC50 was not above 20 nM.

Consider `C[C@@H]1OCC2(CCN(c3nc4[nH]nc(C5(c6cccc(C(F)(F)F)c6)CC5)c4c(=O)[nH]3)CC2)[C@@H]1N` [Example 297, 6-((3S,4S)-4-amino-3-methyl-2-oxa-8-azaspiro[4.5]decan-8-yl)-3-(1-(3-(trifluoromethyl)phenyl)cyclopropyl)-1,5-dihydro-4H-pyrazolo[3,4-d]pyrimidin-4-one], for which the 50% inhibitory concentration (IC50) lay in the range of 20 to 60 nM.

On to `Cn1cc2c(n1)CC(C)(C)C=C2c1n[nH]c2nc(N3CCC4(CC3)Cc3ccccc3[C@H]4N)[nH]c(=O)c12` [Example 153, (S)-6-(1-amino-1,3-dihydrospiro[indene-2,4′-piperidin]-1′-yl)-3-(2,6,6-trimethyl-6,7-dihydro-2H-indazol-4-yl)-1,5-dihydro-4H-pyrazolo[3,4-d]pyrimidin-4-one], for which the half-inhibitory concentration (IC50) was not above 20 nM.

As for `N[C@@H]1c2ccccc2CC12CCN(c1nc3[nH]nc(C4(c5nc6ccccc6[nH]5)CC4)c3c(=O)[nH]1)CC2` [Example 251, (S)-3-(1-(1H-benzo[d]imidazol-2-yl)cyclopropyl)-6-(1-amino-1,3-dihydrospiro[indene-2,4′-piperidin]-1′-yl)-1,5-dihydro-4H-pyrazolo[3,4-d]pyrimidin-4-one], the IC50 was in the range of 20 to 60 nM.

Compound `N[C@@H]1c2ccccc2CC12CCN(c1nc3[nH]nc(C4=CCOc5ccccc54)c3c(=O)[nH]1)CC2` [Example 173, (S)-6-(1-amino-1,3-dihydrospiro[indene-2,4′-piperidin]-1′-yl)-3-(2H-chromen-4-yl)-1,5-dihydro-4H-pyrazolo[3,4-d]pyrimidin-4-one] yielded an IC50 not above 20 nM.

`N#Cc1cccc(C2(c3n[nH]c4nc(N5CCC6(CC5)Cc5ccccc5[C@H]6N)[nH]c(=O)c34)CC2)c1` [Example 35, (S)-3-(1-(6-(1-amino-1,3-dihydrospiro[indene-2,4′-piperidin]-1′-yl)-4-oxo-4,5-dihydro-1H-pyrazolo[3,4-d]pyrimidin-3-yl)cyclopropyl)benzonitrile] displayed an IC50 not above 20 nM.

`N[C@@H]1c2ccccc2CC12CCN(c1nc3[nH]nc(C4(c5cccc(-c6ccccc6)c5)CC4)c3c(=O)[nH]1)CC2` [Example 63, (S)-3-(1-([1,1′-biphenyl]-3-yl)cyclopropyl)-6-(1-amino-1,3-dihydrospiro[indene-2,4′-piperidin]-1′-yl)-1,5-dihydro-4H-pyrazolo[3,4-d]pyrimidin-4-one]: the IC50 was not above 20 nM.
